Laboratory results reported in a melting point compilation (Tetko et al.; mined from patent text by program, amines drawn as free bases though some values may be those of a salt).

melting point | Structure (SMILES)
137 to 140 °C | COc1ccccc1N1CCN(CCCNC(=O)Cc2cccc3c(=O)c(C)c(-c4ccccc4)oc23)CC1
97 to 99 °C | CCCCc1nc2cccc(C(=O)OC)c2n1Cc1ccc(-c2ccccc2N)cc1
192 to 194 °C | CCOc1cc(Cc2cnc(N)nc2N)cc(OCC)c1N
141 to 142 °C | CCOC(=O)c1ccc(C(F)(F)F)c(O)n1
48 to 50 °C | CC(C)(C)OC(=O)N1CCC[C@H]1COc1cccc2c1ccn2S(=O)(=O)c1ccccc1
89.5 to 91.9 °C | CC(=O)NC[C@H]1CN(c2ccc(-n3nccc3-c3ccc(C)cc3)c(F)c2)C(=O)O1
228 to 230 °C | COc1cc2nc(N3CCc4c(CN5CCOCC5)cccc4C3)[nH]c(=O)c2cc1OC
25.5 to 26 °C | CCCCCCCCCCC#Cc1csc(C=O)n1
195 to 197 °C | C=CC(=O)Nc1cccc(CCCc2n[nH]c3cc(C)nn23)c1
172 °C | Nc1ccccc1C(=O)NCCN1CCC(Nc2nc3ccccc3n2Cc2ccc(F)cc2)CC1
175 to 177 °C | CN1CCC(C2(O)c3ccccc3CCn3cccc32)CC1 (stereo not given)
92 to 94 °C | CCCCCCCCCCCCCCOc1cc(O)cc(C(=O)OC)c1
172 °C | CCCCN1CCC(CNC(=O)c2ccc(N)n3cc(CCC)nc23)CC1
121 to 122 °C | NC(=O)C1(CCCN2CCCCC2)CC=CCC1c1ccccc1 (stereo not given)

The next lines start with the compound.

Structure (SMILES) | melting point
COC(=O)COc1c(-c2ccccc2)c(=O)[nH]c2cc(Cl)ccc12 | 188 to 191 °C
ClCC1CN(Cc2ccccc2)CCN1Cc1ccccc1 (stereo not given) | 54 to 56 °C
NC(=O)C(NCCc1cccs1)c1ccccc1Cl (stereo not given) | 90 to 92 °C
CC(=O)NC1(C)CC(C)(C)CC(C)(C)C1 | 110 °C
O=C1NC2=C(C=CCC2)S(=O)(=O)c2cc(C(F)(F)F)ccc21 | 240 to 241 °C
Cc1ccccc1OCC1NCCS1 (stereo not given) | 66 to 68 °C
O=C(NC[C@@H](C(=O)NO)N1CCOCC1)c1ccc(OCc2ccnc(-c3cccc(C(F)(F)F)c3)c2)cc1 | 151 °C
CC(C(N)=O)c1ccc2c(c1)CCc1cccnc1S2 (stereo not given) | 174 to 175 °C
CN(C)c1ccccc1CC(=N)N1C[C@@H]2C(=O)CCC(c3ccccc3)(c3ccccc3)[C@@H]2C1 | 188 °C
CN1C(=O)CNN(c2cc(Cl)c(Oc3ccc(S(C)(=O)=O)cc3)c(Cl)c2)C1=O | 217 °C
C=CCn1c2c(c3cc(OCCN(C)C)ccc31)C(=O)c1cc(OC)c(OC)cc1-2 | 138 °C
O=C(NC(=O)c1c(F)cccc1F)Nc1ccc(Oc2ccc(Cl)cc2)c(Cl)c1 | 194 to 196 °C
O=C1NCc2cc(C(O)c3cccnc3)ccc2N1 (stereo not given) | 272 °C
CN(C)S(=O)(=O)N(C)c1ccc(C(=O)Nc2ccc(Cl)cc2)cc1 | 155 to 156 °C
N#CCNC1(c2ccccc2Cl)C(=O)Nc2ccc(Cl)cc21 (stereo not given) | 240 to 241 °C
CSc1cc(C(C)(C)C)ccc1O | 160 °C
NC(=O)Cn1c(-c2cccc(Cl)c2)nc2cccnc21 | 245 to 247 °C
CC(C)C(=O)Nc1ccc(Br)c(C(F)(F)F)c1 | 126 to 128 °C
COc1cc(OC)nc(C(=O)c2cccnc2C(=O)O)n1 | 71 to 73 °C
COC1(c2ccc(C(C)C)cc2OCc2ccccc2)C(=O)c2ccccc2C1=O | 140 to 144 °C
N#Cc1cnc2c(sc3c(N)cccc32)c1Nc1cccc(Br)c1 | 256 to 258 °C
Cc1ccc(S(=O)(=O)c2ccc(O)cc2)c(Br)n1 | 99 to 102 °C
C=CCOC1OC(C)C(OCc2ccccc2)C(OCc2ccccc2)C1OC1OC(C)C(OCc2ccccc2)C(OCc2ccccc2)C1O (stereo not given) | 98 to 99 °C
O=C1CCC(Cc2ccc3ccccc3c2)=C1O | 120 to 122 °C
COc1ccc(CCN(CC(C)C)S(=O)(=O)N[C@@H](Cc2ccc(NC(=O)c3c(Cl)cncc3Cl)cc2)C(=O)O)cc1OC | 192 °C
Cn1nc(-c2cc(F)c([N+](=O)[O-])cc2F)c(Br)c1C(F)(F)F | 45.5 °C
